In article PMC10578352, “Identification of a Protein Arginine Methyltransferase 7 (PRMT7)/Protein Arginine Methyltransferase 9 (PRMT9) Inhibitor” (Journal of Medicinal Chemistry, 2023):

How the values were obtained:
Format in all cases: biochemical
[1] = molecular target: T1, MLL1/KMT2A (5 component complex) (Homo sapiens, UniProt Q03164); experiment: HotSpot KMT activity assay, MLL1; conditions: read-out: % MLL1 residual activity
T1 construct: MLL1 residues 3745–3969, C-terminus; His (N); purchased Reaction Biology Corporation
Source text: (§1) ; MW = 35.4 kDa; Genbank Accession # NM_018489), or the human recombinant EZH2-containing five-member polycomb repressive complex 2 (including EZH2 residues 2–746, AEBP2 2–517, EED 2–441, RbAp48 2–425, SUZ12 2–739; all full-length; with N-terminal Flag-tag on EED and N-terminal His-tag on all others; MW = 333.8 kDa; Genbank Accession # NM_001203247, NM_001114176, NM_003797, NM_005610, NM_015355), or the human recombinant G9a (residues 913–1193, C-terminus; with an N-terminal His-tag; MW = 34.6 kDa; Genbank Accession # NM_006709.3), or the human recombinant MLL1 complex (including MLL1 residues 3745–3969, C-terminus, WDR5 22–334, C-terminus, RbBP5 1–538, C-terminus, ASH2L 2–534, C-terminus, DPY-30 1–99, C-terminus; N-terminal His-tag on all subunits; MW = 212.0 kDa; Genbank Accession # NM_005933, NM_017588, NM_005057, NM_001105214, NM_0325742), or the human recombinant SET7/9 (residues 2–366, C-terminus; with a N-terminal GST-tag and a C-terminal His-tag; MW = 68.5 kDa; Genbank Accession # NM_030648), or the human recombinant SMYD3 (residues 2–428, C-terminus; C-terminal His-tag; MW = 50.1 kDa; Genbank Accession # NM_001167740), or the human recombinant SUV39H2 (residues 46–410, C-terminus; N-terminal fusion protein with a C-terminal His-tag; MW = 98.8 kDa; GenBank Accession No. NM_001193424), or the human recombinant DOT1L (residues 1–416; N-terminal GST-tag; MW = 80.0 kDa; Genbank Accession # NM_032482) was added to a solution of the proper substrate (oligo nucleosomes for ASH1L, MLL1 complex, and DOT1L, final concentration 0.05 mg/mL; core histone for EZH2 complex and SET7/9, final concentration 0.05 mg/mL; histone H3 for SUV39H2, final concentration 5 μM; histone H3 1–21 for G9a, final concentration 2.5 μM) in freshly prepared reaction buffer (50 mM Tris-HCl (pH 8.5), 5 mM MgCl2, 50 mM NaCl, 1 mM DTT, 1 mM PMSF, 1% DMSO) and gently mixed. […] After incubation for 60 min at 30 °C, the reaction mixture was delivered to filter paper for detection (as assessed by scintillation). […] Values obtained for each compound are mean ± SD determined for two separate experiments.

[2] = molecular target: T2, SUV39H2/KMT1B (Homo sapiens, UniProt Q9H5I1); experiment: HotSpot KMT activity assay, SUV39H2; conditions: read-out: % SUV39H2 residual activity
T2 construct: the human recombinant SUV39H2 (residues 46–410, C-terminus); His (C); purchased Reaction Biology Corporation
Source text: as §1

[3] = molecular target: T3, SET7/9/KMT7 (Homo sapiens, UniProt Q8WTS6); experiment: HotSpot KMT activity assay, SET7/9; conditions: read-out: % SET7/9 residual activity
T3 construct: the human recombinant SET7/9 (residues 2–366, C-terminus); GST (N); His (C); purchased Reaction Biology Corporation
T3 sequence (Q8WTS6 2-366): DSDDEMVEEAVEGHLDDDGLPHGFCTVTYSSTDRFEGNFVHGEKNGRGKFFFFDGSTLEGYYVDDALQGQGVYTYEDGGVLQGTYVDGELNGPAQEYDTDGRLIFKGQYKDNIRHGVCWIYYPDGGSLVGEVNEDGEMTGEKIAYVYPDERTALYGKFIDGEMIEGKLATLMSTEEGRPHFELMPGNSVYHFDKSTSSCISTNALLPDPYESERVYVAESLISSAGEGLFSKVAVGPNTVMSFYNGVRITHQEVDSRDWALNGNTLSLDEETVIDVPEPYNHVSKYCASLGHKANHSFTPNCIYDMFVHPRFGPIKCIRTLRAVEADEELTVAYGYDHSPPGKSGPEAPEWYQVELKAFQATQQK
Source text: as §1

[4] = molecular target: T4, DOT1L/KMT4 (Homo sapiens, UniProt Q8TEK3); experiment: HotSpot KMT activity assay, DOT1L
T4 construct: the human recombinant DOT1L (residues 1–416); N-terminal GST-tag; GST (N); purchased Reaction Biology Corporation
Description: Then, ^3H-SAM (final concentration 1 μM) was delivered into the reaction mixture to initiate the reaction. After incubation for 60 min at 30 °C, the reaction mixture was delivered to filter paper for detection (as assessed by scintillation). […] No inhibitor control (DMSO) was considered as showing 100% enzyme activity. Data were analyzed using Excel and GraphPad Prism 6.0 software (GraphPad Software Inc., San Diego, CA). Values obtained for each compound are mean ± SD determined for two separate experiments.

T4 sequence (Q8TEK3 1-416): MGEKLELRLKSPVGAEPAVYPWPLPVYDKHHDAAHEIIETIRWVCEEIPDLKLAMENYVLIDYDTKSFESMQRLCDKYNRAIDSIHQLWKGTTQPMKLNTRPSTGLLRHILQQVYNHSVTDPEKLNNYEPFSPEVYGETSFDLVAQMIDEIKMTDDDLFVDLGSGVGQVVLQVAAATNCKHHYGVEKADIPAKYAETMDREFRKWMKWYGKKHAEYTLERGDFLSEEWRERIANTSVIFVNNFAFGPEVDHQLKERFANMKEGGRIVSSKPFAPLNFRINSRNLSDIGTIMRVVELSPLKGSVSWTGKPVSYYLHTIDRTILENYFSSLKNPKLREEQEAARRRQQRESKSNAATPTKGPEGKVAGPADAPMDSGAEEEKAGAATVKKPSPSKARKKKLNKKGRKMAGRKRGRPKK
T2 sequence (Q9H5I1 46-410): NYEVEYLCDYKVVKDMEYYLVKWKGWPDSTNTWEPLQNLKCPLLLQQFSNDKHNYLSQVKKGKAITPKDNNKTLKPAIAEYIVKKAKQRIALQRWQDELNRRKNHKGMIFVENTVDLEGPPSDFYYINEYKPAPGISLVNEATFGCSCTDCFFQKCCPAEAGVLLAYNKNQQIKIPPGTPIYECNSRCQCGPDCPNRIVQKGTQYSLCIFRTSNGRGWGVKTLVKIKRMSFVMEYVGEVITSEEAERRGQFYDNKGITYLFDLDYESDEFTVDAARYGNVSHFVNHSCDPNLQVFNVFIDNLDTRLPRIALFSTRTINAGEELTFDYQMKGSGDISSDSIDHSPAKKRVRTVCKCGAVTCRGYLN

remaining activity at 10 µM ([1]; 10 μM): 90.5 ± 2.83%
remaining activity at 100 µM ([1]; 100 μM): 76.9 ± 3.96%
remaining activity at 10 µM ([2]; 10 μM): 89.7 ± 1.08%
remaining activity at 100 µM ([2]; 100 μM): 83.76 ± 0.22%
remaining activity at 10 µM ([3]; 10 μM): 86.3 ± 1.4%
remaining activity at 100 µM ([3]; 100 μM): 53.33 ± 0.38%
inhibition of DOT1L/KMT4 (in words) ([4]; 10 μM): significantly inhibited
remaining activity at 10 µM ([4]; 10 μM, read-out: % DOT1L residual activity): 11.2 ± 0.88%
remaining activity at 100 µM ([4]; 100 μM, read-out: % DOT1L residual activity): 1.35 ± 0.17%
SMILES: COC(=O)c1cc(O)c2cc(NC(=O)NCCCNC(=N)NC[C@H]3O[C@@H](n4cnc5c(N)ncnc54)[C@H](O)[C@@H]3O)cc(C(F)(F)F)c2c1 [1j, Methyl 6-(3-(3-(3-(((2R,3S,4R,5R)-5-(6-Amino-9H-purin-9-yl)-3,4-dihydroxytetrahydrofuran-2-yl)methyl)guanidino)propyl)ureido)-4-hydroxy-8-(trifluoromethyl)-2-naphthoate]
